Assay results published in patent US12077503B2, “Substituted cyclic amides and their use as herbicides” (FMC CORPORATION, priority 2015, dated 2024).

What was measured:
Assay type in all cases: in vivo
[1] = tested on: ryegrass, Italian (Italian ryegrass, Lolium multiflorum); assay: Test A preemergence; conditions: Lolium multiflorum, pre-emergence, 240 h, preemergence, 0 to 100 scale where 0 is no effect and 100 is complete control, read-out: Ryegrass, Italian plant response rating
Summary of the method: (§1)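 Greenhouse, ~10 d after spray; visual injury vs untreated controls, 0 = no effect, 100 = complete control. Preemergence: directed soil spray over planted seeds. Postemergence: plants 2–10 cm, 1–2 leaf stage. Loam/sand blend. Compound in non-phytotoxic solvent with surfactant.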

Kochia (Kochia scoparia) [2] = assay: Test A preemergence; conditions: Bassia scoparia, pre-emergence, 240 h, preemergence, 0 to 100 scale where 0 is no effect and 100 is complete control, read-out: Kochia plant response rating
Summary of the method: as §1

[3] = tested on: pigweed (Amaranthus retroflexus); assay: Test A preemergence; conditions: Amaranthus retroflexus, pre-emergence, 240 h, preemergence, 0 to 100 scale where 0 is no effect and 100 is complete control, read-out: Pigweed plant response rating
[4] = tested on: giant foxtail (Setaria faberii); assay: Test A preemergence; conditions: Setaria faberi, pre-emergence, 240 h, preemergence, 0 to 100 scale where 0 is no effect and 100 is complete control, read-out: Foxtail, Giant plant response rating
Summary of the method: as §1

[5] = tested on: ragweed (common ragweed, Ambrosia elatior); assay: Test A preemergence; conditions: Ambrosia artemisiifolia, pre-emergence, 240 h, preemergence, 0 to 100 scale where 0 is no effect and 100 is complete control, read-out: Ragweed plant response rating
Summary of the method: as §1

[6] = tested on: barnyardgrass (Echinochloa crus-galli); assay: Test A preemergence; conditions: Echinochloa crus-galli, pre-emergence, 240 h, preemergence, read-out: Barnyardgrass plant response rating
Summary of the method: as §1

[7] = tested on: ryegrass, Italian (Italian ryegrass, Lolium multiflorum); assay: Test A postemergence; conditions: Lolium multiflorum, post-emergence, 240 h, postemergence, read-out: Ryegrass, Italian plant response rating
Summary of the method: as §1

Kochia (Kochia scoparia) [8] = assay: Test A postemergence; conditions: Bassia scoparia, post-emergence, 240 h, postemergence, read-out: Kochia plant response rating
Summary of the method: as §1

[9] = tested on: Galium (catchweed bedstraw, Galium aparine); assay: Test A postemergence; conditions: Galium, post-emergence, 240 h, postemergence, read-out: Galium plant response rating
Summary of the method: as §1

[10] = tested on: pigweed (Amaranthus retroflexus); assay: Test A postemergence; conditions: Amaranthus retroflexus, post-emergence, 240 h, postemergence, read-out: Pigweed plant response rating
Summary of the method: as §1

[11] = tested on: wheat (Triticum aestivum); assay: Test A postemergence; conditions: Triticum aestivum, post-emergence, 240 h, postemergence, read-out: Wheat plant response rating
Summary of the method: as §1

[12] = tested on: giant foxtail (Setaria faberii); assay: Test A postemergence; conditions: Setaria faberi, post-emergence, 240 h, postemergence, read-out: Foxtail, Giant plant response rating
Summary of the method: as §1

[13] = tested on: ragweed (common ragweed, Ambrosia elatior); assay: Test A postemergence; conditions: Ambrosia artemisiifolia, post-emergence, 240 h, postemergence, read-out: Ragweed plant response rating
Summary of the method: as §1

corn (Zea mays) = assay: Test A postemergence; conditions: Zea mays, post-emergence, 240 h, postemergence, read-out: Corn plant response rating
Summary of the method: as §1

[14] = tested on: blackgrass (Alopecurus myosuroides); assay: Test A postemergence; conditions: Alopecurus myosuroides, post-emergence, 240 h, postemergence, read-out: Blackgrass plant response rating
Summary of the method: as §1

[15] = tested on: barnyardgrass (Echinochloa crus-galli); assay: Test A postemergence; conditions: Echinochloa crus-galli, post-emergence, 240 h, postemergence, read-out: Barnyardgrass plant response rating
Summary of the method: as §1

[16] = 125 g ai/ha, visual injury on 0 to 100 scale (0 no effect, 100 complete control), approx. 10 d
[17] = 500 g ai/ha, 0 to 100 scale, 0 is no effect, 100 is complete control

**Q.** `O=C1NC[C@H](c2csc(C(F)F)c2)[C@H]1C(=O)Nc1cccc(F)c1F` [Compound 1119] was tested. Which pest or weed control at 125 g/ha ([1]; 125 g ai/ha, approx. 10 d) did it give?
**A.** Its pest or weed control at 125 g/ha is 20%.

**Q.** And the pest or weed control at 500 g/ha ([1]; 500 g ai/ha)?
**A.** The pest or weed control at 500 g/ha was 30%.

**Q.** And the pest or weed control at 125 g/ha (Kochia (Kochia scoparia) [2]; 125 g ai/ha, approx. 10 d)?
**A.** Its pest or weed control at 125 g/ha is 70%.

**Q.** What about the pest or weed control at 500 g/ha (Kochia (Kochia scoparia) [2]; 500 g ai/ha) of the same molecule?
**A.** The pest or weed control at 500 g/ha was 80%.

**Q.** And the pest or weed control at 125 g/ha ([3]; 125 g ai/ha, approx. 10 d)?
**A.** Its pest or weed control at 125 g/ha is 0%.

**Q.** What about the pest or weed control at 500 g/ha ([3]; 500 g ai/ha) of the same molecule?
**A.** Its pest or weed control at 500 g/ha is 30%.

**Q.** What about the pest or weed control at 125 g/ha ([4]; 125 g ai/ha, approx. 10 d) of the same molecule?
**A.** Its pest or weed control at 125 g/ha is 50%.

**Q.** And the pest or weed control at 500 g/ha ([4]; 500 g ai/ha)?
**A.** Its pest or weed control at 500 g/ha is 80%.

**Q.** And the pest or weed control at 125 g/ha ([5]; 125 g ai/ha, approx. 10 d)?
**A.** Its pest or weed control at 125 g/ha is 70%.

**Q.** And the pest or weed control at 500 g/ha ([5]; 500 g ai/ha)?
**A.** Its pest or weed control at 500 g/ha is 70%.

**Q.** What about the pest or weed control at 125 g/ha ([6]; 125 g ai/ha, 0 to 100 scale where 0 is no effect and 100 is complete control, approx. 10 d) of the same molecule?
**A.** Its pest or weed control at 125 g/ha is 90%.

**Q.** And the pest or weed control at 500 g/ha ([6]; 500 g ai/ha, visual injury rating about 10 d after treatment, 0 to 100 scale (0 no effect, 100 complete control))?
**A.** The pest or weed control at 500 g/ha was 90%.

**Q.** What about the pest or weed control at 125 g/ha [7, 16] of the same molecule?
**A.** Its pest or weed control at 125 g/ha is 30%.

**Q.** What about the pest or weed control at 500 g/ha [7, 17] of the same molecule?
**A.** The pest or weed control at 500 g/ha was 30%.

**Q.** What about the pest or weed control at 125 g/ha (Kochia (Kochia scoparia) [8]; [16]) of the same molecule?
**A.** Its pest or weed control at 125 g/ha is 40%.

**Q.** And the pest or weed control at 500 g/ha (Kochia (Kochia scoparia) [8]; [17])?
**A.** Its pest or weed control at 500 g/ha is 60%.

**Q.** What about the pest or weed control at 125 g/ha [9, 16] of the same molecule?
**A.** Its pest or weed control at 125 g/ha is 40%.

**Q.** What about the pest or weed control at 500 g/ha [9, 17] of the same molecule?
**A.** Its pest or weed control at 500 g/ha is 50%.

**Q.** And the pest or weed control at 125 g/ha [10, 16]?
**A.** The pest or weed control at 125 g/ha was 0%.

**Q.** And the pest or weed control at 500 g/ha [10, 17]?
**A.** Its pest or weed control at 500 g/ha is 20%.

**Q.** What about the plant injury at 125 g/ha [11, 16] of the same molecule?
**A.** The plant injury at 125 g/ha was 20%.

**Q.** And the plant injury at 500 g/ha [11, 17]?
**A.** Its plant injury at 500 g/ha is 50%.

**Q.** What about the pest or weed control at 125 g/ha [12, 16] of the same molecule?
**A.** The pest or weed control at 125 g/ha was 30%.

**Q.** What about the pest or weed control at 500 g/ha [12, 17] of the same molecule?
**A.** The pest or weed control at 500 g/ha was 70%.

**Q.** And the pest or weed control at 125 g/ha [13, 16]?
**A.** Its pest or weed control at 125 g/ha is 20%.

**Q.** What about the pest or weed control at 500 g/ha [13, 17] of the same molecule?
**A.** The pest or weed control at 500 g/ha was 60%.

**Q.** And the plant injury at 125 g/ha (corn (Zea mays); [16])?
**A.** The plant injury at 125 g/ha was 20%.

**Q.** And the plant injury at 500 g/ha (corn (Zea mays); [17])?
**A.** Its plant injury at 500 g/ha is 30%.

**Q.** And the pest or weed control at 125 g/ha [14, 16]?
**A.** The pest or weed control at 125 g/ha was 50%.

**Q.** And the pest or weed control at 500 g/ha [14, 17]?
**A.** The pest or weed control at 500 g/ha was 70%.

**Q.** And the pest or weed control at 125 g/ha [15, 16]?
**A.** The pest or weed control at 125 g/ha was 80%.

**Q.** And the pest or weed control at 500 g/ha [15, 17]?
**A.** The pest or weed control at 500 g/ha was 90%.
